Reference: patent US10807992B2, “Single enantiomer antiparasitic compounds” (priority 2017, dated 2020)
Read-outs that look alike come from different tables or passages of the source.

Test system: Aedes aegypti
Test: In vitro contact activity against adult mosquitoes (coated vial)
Method: Aedes aegypti (Louisiana Biologicals Inc., New Orleans, La.) eggs were allowed to hatch, close, and age between 3-5 days in an environmental chamber at 26° C., 80% humidity with light/dark cycles.
For mosquito assays, an aliquot from each compound stock was added to an acetone/triton solution to achieve the desired top doses for the study. Serial dilutions were conducted from the top dose (i.e. 50 ppm) to achieve the desired titration range for EC50 and EC90 determination. The final DMSO concentration in each test vial was 0.5%. A 459 μL aliquot of each compound formulation was transferred to a vial and vials were immediately placed on an unheated roller unit to allow for an even coating of the vial walls. The vials were loosely capped and allowed to dry for a minimum of four hours in a chemical fume hood.
For both contact and ingestion assays, five female Aedes aegypti adults were added to each vial or cage. The test vials for contact assays were held in an environmental chamber at 24° C., 80% humidity with light/dark cycles (12 hours each). The cages for mosquito ingestion assays were held in a temperature-controlled artificial feeding apparatus to allow continual access to organic bovine blood containing the desired concentration of compound. Fresh aliquots of compound-spiked bovine blood were provided daily for the duration of the study.
Mosquitoes showing no movement or mosquitoes that were knocked down were noted as dead. Results from trial 1 and trial 2 contact assays are shown in Tables 12 and 13, respectively and the results from trial 3 mosquito ingestion assay is shown in table 14.
For the mosquito contact and ingestion assays, each replicate contained 5 mosquitoes. For ease of calculation, the two replicates were added to equal a total of 10 mosquitoes.

`O=C(CC(F)(F)F)N1CC2(C1)OCc1cc(C3=NS[C@@](c4cc(Cl)c(F)c(Cl)c4)(C(F)(F)F)C3)ccc12` [C1 (S) enantiomer, (S)-1-[6-[5-(3,5-dichloro-4-fluoro-phenyl)-5-(trifluoromethyl)-4H-isothiazol-3-yl]spiro[1H-isobenzofuran-3,3′-azetidine]-1′-yl]-3,3,3-trifluoro-propan-1-one] was tested, and the mortality at 50 µM (6 h, read-out: % Mortality R1 + R2, Trial 2, contact assay, dose 50 μM, 6 hr) was 100%, the mortality at 0.049 µM (12 h, read-out: % Mortality R1 + R2, Trial 1, contact assay, dose 0.049 μM, 12 hr) was 0% and the mortality at 0.2 µM (12 h, read-out: % Mortality R1 + R2, Trial 1, contact assay, dose 0.20 μM, 12 hr) was 0%. It also gave a mortality at 0.78 µM (12 h, read-out: % Mortality R1 + R2, Trial 1, contact assay, dose 0.78 μM, 12 hr) of 0%, a mortality at 3.125 µM (12 h, read-out: % Mortality R1 + R2, Trial 1, contact assay, dose 3.125 μM, 12 hr) of 10% and a mortality at 12.5 µM (12 h, read-out: % Mortality R1 + R2, Trial 1, contact assay, dose 12.5 μM, 12 hr) of 70%. The mortality at 50 µM (12 h, read-out: % Mortality R1 + R2, Trial 1, contact assay, dose 50 μM, 12 hr) was 100%, the mortality at 0.049 µM (12 h, read-out: % Mortality R1 + R2, Trial 2, contact assay, dose 0.049 μM, 12 hr) was 0% and the mortality at 0.2 µM (12 h, read-out: % Mortality R1 + R2, Trial 2, contact assay, dose 0.20 μM, 12 hr) was 10%. It also gave a mortality at 0.78 µM (12 h, read-out: % Mortality R1 + R2, Trial 2, contact assay, dose 0.78 μM, 12 hr) of 0%, a mortality at 3.125 µM (12 h, read-out: % Mortality R1 + R2, Trial 2, contact assay, dose 3.125 μM, 12 hr) of 20% and a mortality at 12.5 µM (12 h, read-out: % Mortality R1 + R2, Trial 2, contact assay, dose 12.5 μM, 12 hr) of 100%. The mortality at 50 µM (12 h, read-out: % Mortality R1 + R2, Trial 2, contact assay, dose 50 μM, 12 hr) was 100%, the mortality at 0.049 µM (24 h, read-out: % Mortality R1 + R2, Trial 1, contact assay, dose 0.049 μM, 24 hr) was 0% and the mortality at 0.2 µM (24 h, read-out: % Mortality R1 + R2, Trial 1, contact assay, dose 0.20 μM, 24 hr) was 0%. It also gave a mortality at 0.78 µM (24 h, read-out: % Mortality R1 + R2, Trial 1, contact assay, dose 0.78 μM, 24 hr) of 0%, a mortality at 3.125 µM (24 h, read-out: % Mortality R1 + R2, Trial 1, contact assay, dose 3.125 μM, 24 hr) of 60% and a mortality at 12.5 µM (24 h, read-out: % Mortality R1 + R2, Trial 1, contact assay, dose 12.5 μM, 24 hr) of 100%. The mortality at 50 µM (24 h, read-out: % Mortality R1 + R2, Trial 1, contact assay, dose 50 μM, 24 hr) was 100%, the mortality at 0.049 µM (24 h, read-out: % Mortality R1 + R2, Trial 2, contact assay, dose 0.049 μM, 24 hr) was 0% and the mortality at 0.2 µM (24 h, read-out: % Mortality R1 + R2, Trial 2, contact assay, dose 0.20 μM, 24 hr) was 30%. For the same compound, the mortality at 0.78 µM (24 h, read-out: % Mortality R1 + R2, Trial 2, contact assay, dose 0.78 μM, 24 hr) was 0%, the mortality at 3.125 µM (24 h, read-out: % Mortality R1 + R2, Trial 2, contact assay, dose 3.125 μM, 24 hr) was 100% and the mortality at 12.5 µM (24 h, read-out: % Mortality R1 + R2, Trial 2, contact assay, dose 12.5 μM, 24 hr) was 100%. The mortality at 50 µM (24 h, read-out: % Mortality R1 + R2, Trial 2, contact assay, dose 50 μM, 24 hr) was 100%, the mortality at 0.049 µM (48 h, read-out: % Mortality R1 + R2, Trial 1, contact assay, dose 0.049 μM, 48 hr) was 0% and the mortality at 0.2 µM (48 h, read-out: % Mortality R1 + R2, Trial 1, contact assay, dose 0.20 μM, 48 hr) was 10%. The mortality at 0.78 µM (48 h, read-out: % Mortality R1 + R2, Trial 1, contact assay, dose 0.78 μM, 48 hr) was 10%, the mortality at 3.125 µM (48 h, read-out: % Mortality R1 + R2, Trial 1, contact assay, dose 3.125 μM, 48 hr) was 100% and the mortality at 12.5 µM (48 h, read-out: % Mortality R1 + R2, Trial 1, contact assay, dose 12.5 μM, 48 hr) was 100%. The mortality at 50 µM (48 h, read-out: % Mortality R1 + R2, Trial 1, contact assay, dose 50 μM, 48 hr) was 100%, the mortality at 0.049 µM (48 h, read-out: % Mortality R1 + R2, Trial 2, contact assay, dose 0.049 μM, 48 hr) was 0% and the mortality at 0.2 µM (48 h, read-out: % Mortality R1 + R2, Trial 2, contact assay, dose 0.20 μM, 48 hr) was 90%. The mortality at 0.78 µM (48 h, read-out: % Mortality R1 + R2, Trial 2, contact assay, dose 0.78 μM, 48 hr) was 100%, the mortality at 3.125 µM (48 h, read-out: % Mortality R1 + R2, Trial 2, contact assay, dose 3.125 μM, 48 hr) was 100% and the mortality at 12.5 µM (48 h, read-out: % Mortality R1 + R2, Trial 2, contact assay, dose 12.5 μM, 48 hr) was 100%. For the same compound, the mortality at 50 µM (48 h, read-out: % Mortality R1 + R2, Trial 2, contact assay, dose 50 μM, 48 hr) was 100%.
